{
  "source": "patent US20060205772A1",
  "about": "“Amide derivatives and their use as inhibitors of 11-beta-hydroxysteroid dehydrogenase type I” (priority 2003, published 2006)",
  "key": {"[1]": {"test_system": "corticosterone production in adrenalectomized (ADX) mice", "assay": "inhibition of corticosterone production in adrenalectomized (ADX) mice", "type": "in vivo", "settings": "Mus musculus, po; ADX CD1 mice, orally 25 mg/kg each at 2 and 4 h before sacrifice; liver corticosterone", "protocol": "Inhibition of corticosterone production in adrenalectomized (ADX) mice is determined as follows:\nBilateral adrenalectomy is performed in male mice of the CD1 strain (6 to 8 weeks of age, 25-30 g body weight) through a lumbar laparotomy. After 10 days the animals are fasted for 24 h. Compounds are administered orally at 25 mg/kg each at 2 and 4 h before sacrifice. A second group of animals receives carbenoxolone at the same dose, and a third group receives the vehicle (cornstarch). Homogenized liver samples are used to measure corticosterone concentration which is determined by radioimmunoassay and is expressed as pg of corticosterone per mg of liver protein."}, "cellular 11β-HSD1": {"target": "T1, cellular 11β-HSD1 (Rattus norvegicus, UniProt P16232)", "T1 construct": "Enzyme activity is measured in the medium of primary cultures of rat hepatocytes 48 h after plating the cells; endogenous in cells; host or cells: primary hepatocytes of male Sprague-Dawley rats", "T1 sequence (P16232 whole entry)": "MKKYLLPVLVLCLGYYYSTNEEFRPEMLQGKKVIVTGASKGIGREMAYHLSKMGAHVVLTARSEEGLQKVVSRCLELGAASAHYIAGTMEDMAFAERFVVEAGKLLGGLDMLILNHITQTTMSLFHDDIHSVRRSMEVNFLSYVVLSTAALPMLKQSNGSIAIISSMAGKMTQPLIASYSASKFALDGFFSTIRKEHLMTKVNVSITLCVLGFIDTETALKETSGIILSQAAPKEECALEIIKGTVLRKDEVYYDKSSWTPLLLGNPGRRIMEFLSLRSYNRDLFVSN", "assay": "inhibition of cellular 11β-HSD1 activity in primary rat hepatocytes", "type": "cell-based", "settings": "2 h incubation", "protocol": "The inhibition of cellular 11β-HSD1 activity in primary rat hepatocytes is determined as follows:\nMale Sprague-Dawley rats weighing 180-200 g are anesthetized with sodium pentobarbital (65 mg/kg). The liver is perfused in situ with calcium-free Earl's Balanced Salt Solution (EBSS) followed by EBSS containing 100-150 U/mL of collagenase, 1.8 mM CaCl2 and 10 mM HEPES, pH 7.4. The perfused liver is removed and aseptically placed in warm William's Medium E containing 10% BCS. After decapsulation, the organ is transferred to fresh medium and gently shaken to facilitate tissue dissociation and cell release. Hepatocytes are separated from nonparenchymal and dead cells by repeated low speed centrifugation. Cell viability is determined by trypan blue exclusion.\nHepatocytes are plated on collagen coated dishes at a density of 1×10^5 cells/cm^2 in William's medium E containing 10% BCS, 100 U/mL penicillin, 100 μg/mL streptomycin, 0.25 μg/mL amphotericin B, 2 mM L-glutamine, 10 mM HEPES, 100 nM insulin and 1 nM dexamethasone. After 1 h the medium is changed to serum-free William's medium E supplemented as described above. Thereafter, the medium is replaced every 24 h. The cultures are maintained in a humidified atmosphere of 5% CO2 at 37° C.\nEnzyme activity is measured in the medium of primary cultures of rat hepatocytes 48 h after plating the cells. The medium is aspirated and replaced with serum-free William's medium E containing 2 nM [^3H]11-dehydrocorticosterone and a test compound and is incubated for 2 h. An aliquot of culture medium is removed at the end of the incubation and the mixture is extracted with 2 volumes of ethyl acetate, dried under vacuum and resuspended in methanol. The dissolved residues are quantitatively transferred to thin layer plates and developed in chloroform-methanol (90:10). The TLC plates are scanned on a Bioscan imaging detector and the fractional conversion of 11-dehydrocorticosterone to corticosterone is calculated. The cell layer is rinsed with cold phosphate-buffered saline and dissolved in 0.1 N NaOH/5% SDS for the determination of cellular protein (BCA, Pierce, Rockford, Ill.). Enzyme activity is expressed as pmoles of product formed per mg protein per hour."}, "human 11β-HSD2": {"target": "T2, human 11β-HSD2 (Homo sapiens, UniProt P80365)", "T2 construct": "using lysates of SW-620 cells as the enzyme source; host or cells: SW-620 human colon carcinoma cells (lysate)", "T2 sequence (P80365 1-405)": "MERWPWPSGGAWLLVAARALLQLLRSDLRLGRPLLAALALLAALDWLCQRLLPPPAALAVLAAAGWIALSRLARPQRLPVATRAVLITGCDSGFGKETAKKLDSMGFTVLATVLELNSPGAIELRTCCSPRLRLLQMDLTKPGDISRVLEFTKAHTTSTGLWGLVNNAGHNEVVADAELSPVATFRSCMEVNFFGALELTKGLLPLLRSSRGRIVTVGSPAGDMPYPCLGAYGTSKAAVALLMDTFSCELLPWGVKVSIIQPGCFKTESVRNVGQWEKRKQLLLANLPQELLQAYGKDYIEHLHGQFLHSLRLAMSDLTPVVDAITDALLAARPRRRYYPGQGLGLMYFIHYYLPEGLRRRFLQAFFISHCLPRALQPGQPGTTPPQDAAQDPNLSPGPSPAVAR", "assay": "in vitro inhibition of human 11β-HSD2 (SW-620 cell lysates, [3H]cortisol to [3H]cortisone)", "type": "biochemical", "protocol": "The in vitro inhibition of human 11β-HSD2 is determined as follows:\nThe SW-620 human colon carcinoma cell line is obtained from the American Type Culture Collection (ATCC). Cells are plated at a density of 8-10×10^4 cells/cm^2 in DMEM/F12 containing 5% BCS, 100 U/mL penicillin, 100 μg/mL streptomycin and […] amphotericin B. Cultures are grown to 80-90% confluence in a humidified, atmosphere of 5% CO2 at 37° C. The medium is changed to serum-free, phenol red-free DMEM/F12 at 24 h before harvesting the cells.\nAfter 24 h in serum-free medium, cultured SW-620 cells are rinsed and scraped in Kreb's-Ringer buffer, pH 7.4, containing 1 mM EDTA, 2 μg/mL aprotinin, 10 μM leupeptin and 1 μM pepstatin. After sonication (30 seconds) and low speed centrifugation (2,000 rpm, 5 min) to remove cellular debris, the supernatant is collected and used to determine enzyme activity and protein concentration (BCA, Pierce, Rockford, Ill.).\nDehydrogenase activity is quantified by measuring the conversion of [^3H]cortisol to [^3H]cortisone using lysates of SW-620 cells as the enzyme source. The assay is performed in tubes containing Kreb's-Ringer buffer pH 7.4, with 0.20 mM NAD and 200,000 dpm of [^3H]cortisol and a test compound in a total volume of 1 mL. The tubes are preincubated for 10 min at 37° C. before adding 200 μg of cell lysates to start the reaction. After incubation for 1 h at 37° C. in a shaking water bath, the mixture is extracted with 2 volumes of ethyl acetate and centrifuged for 10 min at 2,000 rpm. The organic layer is collected, dried under vacuum and resuspended in methanol. The dissolved residues are quantitatively transferred to thin layer plates and developed in chloroform-methanol (90:10). Unlabeled cortisol and cortisone were used as reference markers. The TLC plates are scanned on a Bioscan radioimaging detector (Bioscan, Washington, D.C.), and the fractional conversion of cortisol to cortisone is calculated. Enzyme activity is expressed as pmoles of product formed per mg protein per hour. Carbenoxolone and glycyrrhetinic acid are used as standards."}, "[2]": {"target": "T3, human recombinant 11β-HSD1 (Homo sapiens, UniProt P28845)", "T3 construct": "made in house; host or cells: Pichia pastoris (microsomal fraction)", "T3 sequence (P28845 whole entry)": "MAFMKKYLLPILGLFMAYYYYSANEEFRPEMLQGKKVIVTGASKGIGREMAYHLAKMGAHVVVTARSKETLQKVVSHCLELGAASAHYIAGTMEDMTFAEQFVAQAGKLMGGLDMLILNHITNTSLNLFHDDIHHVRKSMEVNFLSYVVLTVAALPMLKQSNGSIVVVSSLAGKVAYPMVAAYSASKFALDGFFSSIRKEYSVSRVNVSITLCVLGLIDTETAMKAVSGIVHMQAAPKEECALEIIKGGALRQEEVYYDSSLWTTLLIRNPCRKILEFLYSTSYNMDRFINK", "assay": "in vitro inhibition of human recombinant 11β-HSD1 (Pichia pastoris microsomes, [3H]cortisone to [3H]cortisol)", "type": "biochemical", "settings": "recombinant human 11β-HSD1 microsomes, 500 nM cortisone mixture, NADPH, 90 min at 37° C.", "protocol": "The in vitro inhibition of human recombinant 11β-HSD1 is determined as follows:\nRecombinant human 11β-HSD1 is expressed in yeast Pichia pastoris. Cultures are grown at 30° C. for 3 days in the presence of methanol to induce enzyme expression. The microsomal fraction overexpressing 11β-HSD1 is prepared from the cell homogenate and used as the enzyme source for primary screening. A test compound at the desired concentration is preincubated for 10 min at RT with 3 μg of the microsomal protein in 50 mM sodium phosphate, pH 7.5, in a total volume of 80 μL. The enzyme reaction is initiated by adding 20 μL of a mixture containing 5 mM NADPH, 500 nM cortisone, and 80,000 dpm of [^3H]cortisone in the same buffer and is terminated by ethyl acetate after incubation for 90 min at 37° C. The production of [^3H]cortisol is quantitated upon separation from [^3H]cortisone by a C18 column on HPLC equipped with a radioactivity detector. Glycerrhetinic acid, a known inhibitor of 11β-HSD1, is used as a standard."}},
  "data": [
    {"smiles": "COC(=O)Nc1ccc(C(=O)N2CC[C@H]3CCCC[C@H]3C2)c(OC)c1", "note": "[Example 48-37]", "values": [
      {"measurement": "change in vivo at 25 mg/kg", "setting": "[1]", "result": -69, "unit": "%"},
      {"measurement": "inhibition at 1 µM", "setting": "cellular 11β-HSD1", "result": 75, "unit": "%"},
      {"measurement": "inhibition at 10 µM", "setting": "human 11β-HSD2", "result": 29, "unit": "%"},
      {"measurement": "IC50", "setting": "[2]", "result": 770, "unit": "nM"}
    ]}
  ]
}
